Like-named read-outs stand apart in the source and are kept apart here.
What was measured:
Format in all cases: in vivo
[1] = system: barnyardgrass (Echinochloa crus-galli); assay: Test C flooded paddy test: barnyardgrass; conditions: Echinochloa crus-galli, scale 0 to 100 (0 no effect, 100 complete control), read-out: Plant response rating, Barnyardgrass; for pest or weed control at 62 g/ha: 62 g ai/ha; for pest or weed control at 250 g/ha: 250 g ai/ha; for pest or weed control at 125 g/ha: 125 g ai/ha
Procedure, shortened: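 Rating: visual, 0–100 (100 = complete control), versus untreated controls after 13 to 15 greenhouse days. Treatment went into paddy water held at 3 cm over the soil, on plants grown to two leaves.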

[2] = system: oat, wild (wild oat, Avena fatua); assay: Test D pre-/postemergence: oat, wild
From the text: (§1) Seeds of plant species selected from bluegrass (annual bluegrass, Poa annua), blackgrass (Alopecurus myosuroides), canarygrass (Phalaris minor), chickweed (common chickweed, Stellaria media), galium (catchweed bedstraw, Galium aparine), bromegrass, downy (downy bromegrass, Bromus tectorum), field poppy (Papaver rhoeas), field violet (Viola arvensis), foxtail, green (green foxtail, Setaria viridis), deadnettle (henbit deadnettle, Lamium amplexicaule), ryegrass, Italian (Italian ryegrass, Lolium multiflorum), kochia (Kochia scoparia), lambsquarters (Chenopodium album), oilseed rape (Brassica napus), pigweed (Amaranthus retroflexus), Russian thistle (Salsola iberica), chamomile (scentless chamomile, Matricaria inodora), speedwell (bird's-eye speedwell, Veronica persica), barley, spring (spring barley, Hordeum vulgare), wheat, spring (spring wheat, Triticum aestivum), buckwheat, wild (wild buckwheat, Polygonum convolvulus), mustard, wild (wild mustard, Sinapis arvensis), oat, wild (wild oat, Avena fatua), radish, wild (wild radish, Raphanus raphanistrum), windgrass (Apera spica-venti), barley, winter (winter barley, Hordeum vulgare), and wheat, winter (winter wheat, Triticum aestivum) were planted into a silt loam soil and treated preemergence with test chemicals formulated in a non-phytotoxic solvent mixture which included a surfactant. At the same time, these same crop and weed species were planted in pots containing the planting medium comprising spaghnum peat moss, vermiculite, wetting agent and starter nutrients and treated with postemergence applications of the test chemicals formulated in the same manner. Plants ranged in height from 2 to 18 cm (1- to 4-leaf stage).
(§2) Treated plants and controls were maintained in a controlled growth environment for 14 to 21 days after which time all species were compared to controls and visually evaluated. Plant response ratings, summarized in Table D, are based on a scale of 0 to 100 where 0 is no effect and 100 is complete control. A dash (-) response means no test result.

[3] = system: windgrass (Apera spica-venti); assay: Test D pre-/postemergence: windgrass
From the text: as §1, §2

[4] = system: deadnettle (henbit deadnettle, Lamium amplexicaule); assay: Test D pre-/postemergence: deadnettle
From the text: as §1, §2

[5] = system: Russian thistle (Salsola iberica); assay: Test D pre-/postemergence: Russian thistle
From the text: as §1, §2

[6] = Flood (flooded paddy test), visual rating after 13 to 15 days
[7] = Postemergence, 31 g ai/ha, scale 0 to 100 (0 no effect, 100 complete control)
[8] = Postemergence, 62 g ai/ha, scale 0 to 100 (0 no effect, 100 complete control)
[9] = Postemergence, 125 g ai/ha, scale 0 to 100, 0 no effect, 100 complete control
[10] = Postemergence, 250 g ai/ha, scale 0 to 100 (0 no effect, 100 complete control)
[11] = Preemergence, 31 g ai/ha, scale 0 to 100, 0 no effect, 100 complete control
[12] = Preemergence, 62 g ai/ha, scale 0 to 100
[13] = Preemergence, 125 g ai/ha, scale 0 to 100
[14] = Preemergence, 250 g ai/ha, scale 0 to 100
[15] = Postemergence, 16 g ai/ha, scale 0 to 100
[16] = Postemergence, 31 g ai/ha, scale 0 to 100
[17] = Preemergence, 16 g ai/ha, scale 0 to 100, 0 no effect, 100 complete control

Compound | pest or weed control at 62 g/ha [1, 6] [%] | pest or weed control at 250 g/ha [1, 6] [%] | Plant response rating: Oat, Wild [2, 7] | Plant response rating: Oat, Wild [2, 8] | Plant response rating: Oat, Wild [2, 9] | Plant response rating: Oat, Wild [2, 10] | Plant response rating, Oat, Wild [2, 12] | Plant response rating, Oat, Wild [2, 13] | Plant response rating: Windgrass [3, 8] | Plant response rating: Windgrass [3, 9] | Plant response rating: Windgrass [3, 10] | Plant response rating, Windgrass [3, 11] | Plant response rating, Windgrass [3, 12] | Plant response rating, Windgrass [3, 13] | Plant response rating: Deadnettle [4, 7] | Plant response rating: Deadnettle [4, 8] | Plant response rating: Deadnettle [4, 9] | Plant response rating: Russian Thistle [5, 7] | Plant response rating: Russian Thistle [5, 8] | Plant response rating: Russian Thistle [5, 9] | other results
Cc1nn(-c2ccc(C(F)(F)F)cc2)nc1Oc1csc(C(F)(F)F)c1 [Compound 1, 4-methyl-2-[4-(trifluoromethyl)phenyl]-5-[[5-(trifluoromethyl)-3-thienyl]oxy]-2H-1,2,3-triazole] | 0 | 0 |  |  |  |  |  |  |  |  |  |  |  |  |  |  |  |  |  |  | 
FC(F)(F)COc1nn(-c2ccc(C(F)(F)F)cc2)nc1Cc1ccnc(C(F)(F)F)c1 [Compound 14, 4-[[5-(2,2,2-trifluoroethoxy)-2-[4-(trifluoromethyl)phenyl]-2H-1,2,3-triazol-4-yl]methyl]-2-(trifluoromethyl)pyridine] | 50 | 70 | 15 | 25 | 40 | 55 | 20 | 20 | 40 | 75 | 100 | 10 | 20 | 40 | 25 | 40 | 100 | 0 | 75 | 100 | Plant response rating, Oat, Wild [2, 11]: 0; Plant response rating, Oat, Wild [2, 14]: 50; Plant response rating: Windgrass [3, 7]: 30; Plant response rating, Windgrass [3, 14]: 85; Plant response rating: Deadnettle [4, 10]: 100; Plant response rating, Deadnettle [4, 11]: 60; Plant response rating, Deadnettle [4, 12]: 70; Plant response rating, Deadnettle [4, 13]: 100; Plant response rating, Deadnettle [4, 14]: 100; Plant response rating: Russian Thistle [5, 10]: 100; Plant response rating, Russian Thistle [5, 11]: 0; Plant response rating, Russian Thistle [5, 12]: 0; Plant response rating, Russian Thistle [5, 13]: 10; Plant response rating, Russian Thistle [5, 14]: 40
COc1nn(-c2ccc(C(F)(F)F)cc2)nc1Cc1ccnc(C(F)(F)F)c1 [Compound 15, 4-[[5-methoxy-2-[4-(trifluoromethyl)phenyl]-2H-1,2,3-triazol-4-yl]methyl]-2-(trifluoromethyl)pyridine] | 65 | 75 | 10 | 10 | 30 | 40 | 15 | 40 | 25 | 75 | 100 | 30 | 40 | 100 | 75 | 98 | 100 | 100 | 100 | 100 | Plant response rating, Oat, Wild [2, 15]: 10; Plant response rating, Oat, Wild [2, 14]: 100; Plant response rating: Windgrass [3, 7]: 10; Plant response rating, Windgrass [3, 15]: 5; Plant response rating, Windgrass [3, 14]: 100; Plant response rating: Deadnettle [4, 10]: 100; Plant response rating, Deadnettle [4, 15]: 50; Plant response rating, Deadnettle [4, 11]: 10; Plant response rating, Deadnettle [4, 12]: 40; Plant response rating, Deadnettle [4, 13]: 95; Plant response rating, Deadnettle [4, 14]: 100; Plant response rating: Russian Thistle [5, 10]: 100; Plant response rating, Russian Thistle [5, 15]: 60; Plant response rating, Russian Thistle [5, 11]: 0; Plant response rating, Russian Thistle [5, 12]: 0; Plant response rating, Russian Thistle [5, 13]: 80; Plant response rating, Russian Thistle [5, 14]: 80
COCc1nn(-c2ccc(C(F)(F)F)cc2)nc1Oc1cccc(OC(F)(F)F)c1 [Compound 115, 4-(methoxymethyl)-5-[3-(trifluoromethoxy)phenoxy]-2-[4-(trifluoromethyl)phenyl]-2H-1,2,3-triazole] |  | 60 |  |  |  |  |  |  |  |  |  |  |  |  |  |  |  |  |  |  | pest or weed control at 125 g/ha [1, 6]: 45%; pest or weed control at 62 g/ha ([1]; Flood): 40%
FCc1nn(-c2ccc(C(F)(F)F)cc2)nc1Oc1cccc(OC(F)(F)F)c1 [Compound 116, 4-(fluoromethyl)-5-[3-(trifluoromethoxy)phenoxy]-2-[4-(trifluoromethyl)phenyl]-2H-1,2,3-triazole] |  | 60 |  |  |  |  |  |  |  |  |  |  |  |  |  |  |  |  |  |  | pest or weed control at 125 g/ha [1, 6]: 40%; pest or weed control at 62 g/ha ([1]; Flood): 35%
COc1nn(-c2ccc(C(F)(F)F)cc2)nc1Cc1ccnc(C(F)F)c1 [Compound 138] |  |  | 20 | 30 | 50 | 75 |  |  | 50 | 60 | 90 |  |  |  | 50 | 75 | 80 | 75 | 90 | 95 | Plant response rating, Oat, Wild [2, 15]: 10; Plant response rating, Windgrass [3, 15]: 15; Plant response rating, Windgrass [3, 16]: 30; Plant response rating: Deadnettle [4, 10]: 95; Plant response rating, Deadnettle [4, 15]: 50; Plant response rating: Russian Thistle [5, 10]: 100; Plant response rating, Russian Thistle [5, 15]: 50
Cc1nn(-c2ccc(F)c(C(F)(F)F)c2)nc1Cc1ccnc(C(F)(F)F)c1 [Compound 156] |  |  | 15 | 20 | 65 |  | 25 | 90 | 70 | 80 |  | 10 | 85 | 100 | 85 | 100 | 100 | 85 | 90 | 80 | Plant response rating, Oat, Wild [2, 15]: 10; Plant response rating, Oat, Wild [2, 17]: 5; Plant response rating, Oat, Wild [2, 11]: 10; Plant response rating, Windgrass [3, 15]: 25; Plant response rating, Windgrass [3, 16]: 50; Plant response rating, Windgrass [3, 17]: 0; Plant response rating, Deadnettle [4, 15]: 70; Plant response rating, Deadnettle [4, 17]: 5; Plant response rating, Deadnettle [4, 11]: 15; Plant response rating, Deadnettle [4, 12]: 100; Plant response rating, Deadnettle [4, 13]: 100; Plant response rating, Russian Thistle [5, 15]: 60
